Values joined by “and” are separate entries in the source; they are usually repeats but may differ in a detail not shown here. Identical values can stand only once. “Also recorded” adds a separate entry of the source. Like-named read-outs stand apart in the source and are kept apart here.

The target in experiment [1] is T1, C99 domain of the human amyloid precursor protein (Homo sapiens, UniProt P05067).
T1 construct: the transmembrane 99 residue C-terminal (C99) domain; His tag (either the C-terminal hexa-His that is kept, or the N-terminal His of C99-NT2 removed by thrombin); made in house; host or cells: E. coli BL21DE3
T1 sequence (P05067 672-770 limits assumed): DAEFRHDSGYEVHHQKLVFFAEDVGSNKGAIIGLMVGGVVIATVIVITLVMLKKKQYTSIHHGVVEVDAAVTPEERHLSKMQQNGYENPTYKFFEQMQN
Description: TROSY NMR titration of C99 by verteporfin, fit to 1:1 binding model. As for the experimental part: The preparation of NMR screening samples consisted of final concentrations of 50 μM C99, 2.5% w/v LMPG, […] buffer imidazole, 5% v/v D2O, 0.5 mM EDTA, pH 6.5. To ensure that these final conditions were maintained, the individual components of the screening samples were added from stocks in a specific order. For example, to make 10 ml of screening sample in imidazole NMR buffer, the following was added: (1) 10 by 250 μl frozen stocks of 200 μM protein were thawed on ice and transferred to a 15 ml conical vial; (2) 1.25 ml of 20% w/v LMPG stock (dissolved in H2O) was added to the conical vial, which was mixed by vortexing; (3) 1 ml of 10× concentrated imidazole NMR buffer was added to the conical vial and mixed by vortexing; (4) the sample was then diluted to 10 ml by adding 4.75 ml of ddH2O and 0.5 ml of D2O and allowed to reach equilibrium for at least 60 min. This final pool contained 50 μM C99, 25 mM imidazole, 100 mM NaCl, 2.5% LMPG, 5% v/v D2O, 0.5 mM EDTA, pH 6.5. At that point, the samples (199 μl for each well) were distributed into 96-well plates containing predispensed compounds, thoroughly mixed by pipette, and the complete 200 μl mixtures were transferred to 3 mm x 4 inch NMR tubes. At this point, each 3 mm NMR tube contained a 200 μl sample of 50 μM C99, 50 μM Compound, 25 mM imidazole, 100 mM NaCl, 2.5% w/v LMPG, 5% v/v D2O, 0.5% v/v DMSO, 0.5 mM EDTA, pH 6.5. Loaded NMR tubes were cleaned with 100% Ethanol on a kimwipe, securely capped, and transferred to an NMR tube rack compatible with a Bruker SampleJet system.
(§1) A Bruker Avance III 600 MHz NMR spectrometer equipped with a cryoprobe (CPTCI) and automated sample changer (SampleJet) was used to collect NMR spectra. Sample details are described above. For high-throughput screening data collection, the ^15N-^1H BEST-TROSY (b_trosy3gpph.2) experiment with 64 scans for each of 96 increments and a relaxation delay of 200 ms was run at 318 K for a total data acquisition time of 35 min per sample. To achieve enhanced signal-to-noise ratio, follow-up titrations and control experiments were conducted using the BEST-TROSY pulse program with 200 scans per 96 increments at 318 K, for a total data acquisition time of 110 min per sample. Data were processed using Bruker Topspin 3.6 using a Gaussian window function with a line broadening of -10 and a Gaussian max of 0.1 in both dimensions. NMR data were then further processed and analyzed using NMR-FAM SPARKY, plotted using GraphPad Prism 9, and prepared for publication figures using Affinity Designer.
2D ^15 N-^1H HSQC NMR data used to calculate dissociations constant (KD) values by first normalizing 2D data using the established formula ([78]) (Equation 1):(1) δ(1H,15N)=√(1/2[δ2H+.14∗δ2N]) Where δ(1H,15N) is the square root of linear chemical shifts in each respective dimension, δH and δN with the Nitrogen normalization factor of 0.14.
After 2D normalization, the data were fit to a hyperbolic binding isotherm using one of the following formulas depending of the data:(2) Y=Bmax∗X/(KD+X)+NS∗X
For this equation, Y is the total binding, Bmax is the maximum binding in the same units as Y, X is the added ligand in molar units, KD is the equilibrium dissociation constant in the same units as X, and NS is a linear term to account for either vehicle or nonspecific verteporfin effects.(3) Y=Bmax∗X/(KD+X)
(§2) For this equation, Y is the total binding, Bmax is the maximum binding in the same units as Y, X is the added ligand in molar units, KD is the equilibrium dissociation constant in the same units as X. 1D NMR-binding curves were generated by directly inputting 1D chemical shift perturbations directly into the proper version of Equation 2. Peak height data, such as that quantified in Figures 4 and S4, were first generated using the peak-picking function in NMRFAM Sparky, and peak heights as a function of ligand concentration were used to generate a KD by addition into Equation 2.

A short description of experiment [2]: 1D 1H NMR titration of empty LMPG micelles by verteporfin. As to conditions: empty 2.5% LMPG micelles, acyl chain methylene peak shifts, n = 1; read-out: KD, one verteporfin binding to one detergent micelle model.
Source text: as §2

Another experiment has as its system T2, C99 L723A.
T2 construct: the transmembrane 99 residue C-terminal (C99) domain; hexa-His; made in house
Description: TROSY NMR titration of C99 L723A mutant by verteporfin. The format is binding, human. As to conditions: LMPG micelles, up to 300 µM verteporfin, n=1. As for the experimental part: as §1

The subject of the next experiment is T3, C99.
T3 construct: the transmembrane 99 residue C-terminal (C99) domain; His tag (either the C-terminal hexa-His that is kept, or the N-terminal His of C99-NT2 removed by thrombin); made in house; host or cells: E. coli BL21DE3
Description: Native ion mobility–mass spectrometry of C99–verteporfin mixtures. The arrangement: species or system human. An excerpt:
IM-MS data were collected using a Synapt G2 HDMS IM-Q-ToF mass spectrometer (Waters), with a direct infusion nESI source set to positive ion mode. The instrument settings were tuned to generate intact C99–verteporfin complex ions while completely dissociating them from detergent LMPG micelles, including appropriately tuned settings for the sampling cone 80 V, trap cell accelerating potential 80 V, and the transfer cell accelerating potential 70 V. The trapping cell wave velocity and height were 116 m/s and 0.1 V, respectively. The IMS wave velocity and height were 250 m/s and 15 V, respectively. The transfer cell wave velocity and height were 300 m/s and 10 V. Prior to analysis, C99 in LMPG micelles at a protein concentration of 20 μM C99 and 100X CMC LMPG or DDMB samples were prepared by incubating 20 μM C99 with 100X CMC LMPG for 30 min, then titrating in DMSO or Verteporfin and incubating in the dark overnight. Verteporfin-binding buffer conditions were 200 mM Ammonium Acetate at pH 4.5.

Take verteporfin: the Kd in experiment [1] (C99 in model membranes, read-out: KD of 1:1 complex) is roughly 17 µM; in experiment [1] (D6PC/DMPC (q = 0.33) bicelles, n = 1, error of the fit, Fig. 3C, read-out: KD from C99 peak E766), 17 ± 4 µM; in experiment [1] (D6PC/DMPC (q = 0.33) bicelles, n = 1, error of the fit, Fig. 3C, read-out: KD from C99 peak T761) it was 16 ± 4 µM; in experiment [1] (LMPG micelles, 50 μM C99, pH 6.5, 318 K, 1:1 binding model, read-out: average dissociation constant (KD) across multiple residues in and around the TM domain), 17 ± 11 µM; in experiment [1] (depending on the membrane mimetic used (LMPG, DDMB micelles, DHPC-DMPC bicelles), read-out: KD range across membrane mimetics) it was 15 to 47 µM and 10 to 50 µM; in experiment [1] (nonionic DDMB micelles, n=1, error of the fit, Fig. S2C, read-out: KD from fitting of two different peaks), 43 µM and 47 µM. Besides, the Kd in experiment [1] (untagged C99 in DDMB micelles, Fig. S2 title, read-out: KD) is 45 ± 22 µM; in experiment [2], 53 ± 21 µM. Moreover, the “binding to C99 L723A” value with C99 L723A was “nearly complete lack of binding; also recorded: binding was disrupted”. The “change in C99 oligomeric state (IM-MS)” value with C99 (LMPG and DDMB micelles, 0–50 μM verteporfin, low detergent conditions, n = 3) is “only a marginal increase in the population of dimeric C99; also recorded: does not undergo any significant change in oligomeric state”. In the experiment on C99 (samples kept in the dark), the “covalent modification of C99 (mass by IM-MS)” value is given as “no covalent modification”.

For the origin of these results see publication PMC8968665, “Verteporfin is a substrate-selective γ-secretase inhibitor that binds the amyloid precursor protein transmembrane domain” (The Journal of Biological Chemistry, 2022).
